Assay results: EP4772513A1, “PI3K-ALPHA INHIBITOR AND USE THEREOF” (TYK Medicines (Zhengzhou), Inc., priority 2023, dated 2025)

Assays:
[1] = tested on: Human breast cancer cells SK-BR-3 (WT); test: Cell proliferation inhibition assay (CTG), SK-BR-3 (WT); type: cell-based; conditions: Homo sapiens, 72 h, SK-BR-3 (WT) cells, 3 days incubation, CTG readout
Method: (§1) Cell Proliferation Inhibition Assay
(§2) 1. Experimental Materials
(§3) II. Experimental Protocol
(§4) • a) Cell suspension was prepared; • b) The medium was removed from the culture flask; • c) The cells were rinsed once with PBS; • d) Trypsin was added for digestion, and the cells were centrifuged and collected; • e) The cells were resuspended in medium, counted and adjusted to an appropriate concentration; • f) 100 µL of cell suspension was added to each well of a 96-well plate. One plate was used for each cell line, which was incubated overnight in a 37 °C, 5% CO2 incubator.
(§5) 2. Treatment of Compounds
(§6) • a) Serial dilutions of the test compounds were prepared: The compound was prepared as a 10 mM stock solution. 18 µL of the stock solution was dissolved in 982 µL of the culture medium containing DMSO, followed by 4-fold serial dilutions in culture medium containing 0.5% DMSO to give 9 concentrations. The concentrations of the diluted compound were as follows: 180000 nM, 45000 nM, 11250 nM, 2812.5 nM, 703.13 nM, 175.78 nM, 43.95 nM, 10.99 nM, and 2.75 nM. • b) After thorough mixing, 20 µL of each compound solution was added to the cell plate containing 100 µL of cells per well. Each concentration was tested in triplicate. Final concentrations of the compound were as follows: 30000 nM, 7500 nM, 1875 nM, 468.75 nM, 117.188 nM, 29.30 nM, 7.32 nM, 1.83 nM, and 0.46 nM. • c) The cells were transferred into the incubator and incubated for 3 days.
(§7) The cell plate was removed, 25 µL of CTG reagent was added to each well of the 96-well plate, the mixture was shook on a plate shaker at room temperature for 10 minutes, and the plate was read.
(§8) The cell survival rate was calculated using the following formula (% Cell Survival): % Cell Survival = 100% × (OD_Sample−OD_LCave)/(OD_HC−OD_LCave) [formula] • OD_HC: Reading of the 0.1‰ DMSO control group • OD_Sample: Reading of cells treated with compound • OD_LCave: Reading of blank medium
(§9) Analyzed by Prism: Dose-response-Inhibition - Log (inhibitor) vs response (three parameters for the best fit).

[2] = tested on: Human breast cancer cells T47D (H1047R); test: Cell proliferation inhibition assay (CTG), T47D (H1047R); type: cell-based; conditions: Homo sapiens, 72 h, 3 days incubation, CTG readout
Method: as §1, §2, §3, §4, §5, §6, §7, §8, §9

Row | SMILES | IC50 [1] [nM] | IC50 [2] [nM]
1 | C[C@@H](Nc1ccccc1C(=O)O)c1cc(F)cc2c(=O)c3c(oc12)CN(S(=O)(=O)C1CC1)CC3 [Compound C78] | > 5000 | 500 to 2000
2 | C[C@@H](Nc1ccccc1C(=O)O)c1cc(F)cc2c(=O)c3c(oc12)CN(S(=O)(=O)N1CCOCC1)CC3 [Compound C80] | > 5000 | ≤ 500
3 | Cc1cc([C@@H](C)Nc2ccc(Cl)nc2C(=O)O)c2oc3c(c(=O)c2c1)CCN(S(=O)(=O)c1ccccc1)C3 [Compound C82] | > 5000 | ≤ 500
4 | C[C@@H](Nc1ccc(Cl)nc1C(=O)O)c1cc(F)cc2c(=O)c3c(oc12)CN(C(=O)N1CC(F)C1)CC3 [Compound C83] | > 5000 | 500 to 2000
5 | C[C@@H](Nc1ccccc1C(=O)O)c1cc(F)cc2c(=O)c3c(oc12)CN(S(=O)(=O)c1ccccc1)CC3 [Compound C89] | > 5000 | ≤ 500
6 | C[C@@H](Nc1ccc(Cl)nc1C(=O)O)c1cc(F)cc2c(=O)c3c(oc12)CN(S(=O)(=O)c1ccccc1C#N)CC3 [Compound C90] | > 5000 | ≤ 500
7 | C[C@@H](Nc1ccc(Cl)nc1C(=O)O)c1cc(F)cc2c(=O)c3c(oc12)CN(S(=O)(=O)c1cccc(C#N)c1)CC3 [Compound C91] | > 5000 | 500 to 2000
8 | C[C@@H](Nc1ccc(Cl)nc1C(=O)O)c1cc(F)cc2c(=O)c3c(oc12)CN(S(=O)(=O)c1ccc(C#N)cc1)CC3 [Compound C92] | > 5000 | 500 to 2000
9 | C[C@@H](Nc1ccc(Cl)nc1C(=O)O)c1cc(F)cc2c(=O)c3c(oc12)CN(S(=O)(=O)c1ccccc1F)CC3 [Compound C93] | > 5000 | ≤ 500
10 | C[C@@H](Nc1ccc(Cl)nc1C(=O)O)c1cc(F)cc2c(=O)c3c(oc12)CN(S(=O)(=O)c1cccc(F)c1)CC3 [Compound C94] | > 5000 | ≤ 500
11 | C[C@@H](Nc1ccc(Cl)nc1C(=O)O)c1cc(F)cc2c(=O)c3c(oc12)CN(S(=O)(=O)c1ccc(F)cc1)CC3 [Compound C95] | > 5000 | ≤ 500
12 | COc1ccccc1S(=O)(=O)N1CCc2c(oc3c([C@@H](C)Nc4ccc(Cl)nc4C(=O)O)cc(F)cc3c2=O)C1 [Compound C96] | > 5000 | ≤ 500
13 | COc1cccc(S(=O)(=O)N2CCc3c(oc4c([C@@H](C)Nc5ccc(Cl)nc5C(=O)O)cc(F)cc4c3=O)C2)c1 [Compound C97] | > 5000 | ≤ 500
14 | COc1ccc(S(=O)(=O)N2CCc3c(oc4c([C@@H](C)Nc5ccc(Cl)nc5C(=O)O)cc(F)cc4c3=O)C2)cc1 [Compound C98] | > 5000 | ≤ 500
15 | Cc1cc([C@@H](C)Nc2ccc(Cl)nc2C(=O)O)c2oc3c(c(=O)c2c1)CCN(S(=O)(=O)C1(C)CC1)C3 [Compound C113] | > 5000 | ≤ 500
16 | C[C@@H](Nc1ccc(Cl)nc1C(=O)O)c1cc(F)cc2c(=O)c3c(oc12)CN(S(=O)(=O)c1c(F)cccc1F)CC3 [Compound C114] | > 5000 | ≤ 500
17 | C[C@@H](Nc1ccc(Cl)nc1C(=O)O)c1cc(F)cc2c(=O)c3c(oc12)CN(S(=O)(=O)c1ccccc1C(F)(F)F)CC3 [Compound C115] | > 5000 | ≤ 500
18 | C[C@@H](Nc1ccc(Cl)nc1C(=O)O)c1cc(F)cc2c(=O)c3c(oc12)CN(S(=O)(=O)c1cccc2c1CCO2)CC3 [Compound C120] | > 5000 | ≤ 500
19 | C[C@@H](Nc1ccc(Cl)nc1C(=O)O)c1cc(F)cc2c(=O)c3c(oc12)CN(S(=O)(=O)c1cccc(=O)n1C)CC3 [Compound C124] | > 5000 | 500 to 2000
20 | Cc1nn(C)c(C)c1S(=O)(=O)N1CCc2c(oc3c([C@@H](C)Nc4ccc(Cl)nc4C(=O)O)cc(F)cc3c2=O)C1 [Compound C125] | > 5000 | ≤ 500
21 | C[C@@H](Nc1ccc(Cl)nc1C(=O)O)c1cc(F)cc2c(=O)c3c(oc12)CN(S(=O)(=O)c1cc(F)cc(F)c1F)CC3 [Compound C129] | > 5000 | ≤ 500
22 | C[C@@H](Nc1ccc(Cl)nc1C(=O)O)c1cc(F)cc2c(=O)c3c(oc12)CN(S(=O)(=O)c1c(F)ccc(F)c1F)CC3 [Compound C135] | > 5000 | ≤ 500
23 | C[C@@H](Nc1ccc(Cl)nc1C(=O)O)c1cc(F)cc2c(=O)c3c(oc12)CN(S(=O)(=O)c1cccn2ncc(Cl)c12)CC3 [Compound C137] | > 5000 | ≤ 500
24 | Cc1cc([C@@H](C)Nc2ccccc2C(=O)O)c2oc3c(c(=O)c2c1)CCN(S(=O)(=O)c1c(C)noc1C)C3 [Compound C139] | > 5000 | ≤ 500
25 | Cc1noc(C)c1S(=O)(=O)N1CCc2c(oc3c([C@@H](C)Nc4ccccc4C(=O)O)cc(F)cc3c2=O)C1 [Compound C140] | > 5000 | ≤ 500
26 | C[C@@H](Nc1ccccc1C(=O)O)c1cc(F)cc2c(=O)c3c(oc12)CN(S(=O)(=O)N1CCC(F)(F)CC1)CC3 [Compound C141] | > 5000 | 500 to 2000
27 | Cc1cc([C@@H](C)Nc2ccccc2C(=O)O)c2oc3c(c(=O)c2c1)CCN(S(=O)(=O)N1CCOC(C)(C)C1)C3 [Compound C142] | > 5000 | ≤ 500

The next lines start with the values.

Row | IC50 [1] [nM] | IC50 [2] [nM] | SMILES
28 | > 5000 | 500 to 2000 | Cc1cc([C@@H](C)Nc2ccc(Cl)nc2C(=O)O)c2oc3c(c(=O)c2c1)CCN(S(=O)(=O)N1CCOCC1)C3 [Compound C81]
29 | > 5000 | 500 to 2000 | C[C@@H](Nc1ccc(Cl)nc1C(=O)O)c1cc(F)cc2c(=O)c3c(oc12)CN(S(=O)(=O)c1nccn1C)CC3 [Compound C101]
30 | > 5000 | 500 to 2000 | C[C@@H](Nc1ccc(Cl)nc1C(=O)O)c1cc(F)cc2c(=O)c3c(oc12)CN(S(=O)(=O)C1CCCC1)CC3 [Compound C108]
31 | > 5000 | ≤ 500 | C[C@@H](Nc1ccc(Cl)nc1C(=O)O)c1cc(F)cc2c(=O)c3c(oc12)CN(S(=O)(=O)C1CCCCC1)CC3 [Compound C109]
32 | > 5000 | ≤ 500 | C[C@@H]1COCCN1S(=O)(=O)N1CCc2c(oc3c([C@@H](C)Nc4ccc(Cl)nc4C(=O)O)cc(F)cc3c2=O)C1 [Compound C116]
33 | > 5000 | ≤ 500 | C[C@@H](Nc1ccc(Cl)nc1C(=O)O)c1cc(F)cc2c(=O)c3c(oc12)CN(S(=O)(=O)N1CCOC[C@@H]1C)CC3 [Compound C117]
34 | > 5000 | ≤ 500 | Cc1noc(C)c1S(=O)(=O)N1CCc2c(oc3c([C@@H](C)Nc4ccc(Cl)nc4C(=O)O)cc(F)cc3c2=O)C1 [Compound C118]
35 | > 5000 | ≤ 500 | C[C@@H](Nc1ccc(Cl)nc1C(=O)O)c1cc(F)cc2c(=O)c3c(oc12)CN(S(=O)(=O)N1CCC(F)(F)CC1)CC3 [Compound C121]
36 | > 5000 | ≤ 500 | C[C@@H]1CN(S(=O)(=O)N2CCc3c(oc4c([C@@H](C)Nc5ccc(Cl)nc5C(=O)O)cc(F)cc4c3=O)C2)CCO1 [Compound C122]
37 | > 5000 | ≤ 500 | C[C@H]1CN(S(=O)(=O)N2CCc3c(oc4c([C@@H](C)Nc5ccc(Cl)nc5C(=O)O)cc(F)cc4c3=O)C2)CCO1 [Compound C123]
38 | > 5000 | 500 to 2000 | Cc1ncn(C)c1S(=O)(=O)N1CCc2c(oc3c([C@@H](C)Nc4ccc(Cl)nc4C(=O)O)cc(F)cc3c2=O)C1 [Compound C126]
39 | > 5000 | ≤ 500 | C[C@@H]1CN(S(=O)(=O)N2CCc3c(oc4c([C@@H](C)Nc5ccc(Cl)nc5C(=O)O)cc(F)cc4c3=O)C2)C[C@@H](C)O1 [Compound C127]
40 | > 5000 | ≤ 500 | Cc1cnn(C)c1S(=O)(=O)N1CCc2c(oc3c([C@@H](C)Nc4ccc(Cl)nc4C(=O)O)cc(F)cc3c2=O)C1 [Compound C128]
41 | > 5000 | ≤ 500 | C[C@@H](Nc1ccc(Cl)nc1C(=O)O)c1cc(F)cc2c(=O)c3c(oc12)CN(S(=O)(=O)N1CCOC(C)(C)C1)CC3 [Compound C130]
42 | > 5000 | ≤ 500 | C[C@H]1CN(S(=O)(=O)N2CCc3c(oc4c([C@@H](C)Nc5ccc(Cl)nc5C(=O)O)cc(F)cc4c3=O)C2)C[C@H](C)O1 [Compound C132]
43 | > 5000 | ≤ 500 | CC1CN(S(=O)(=O)N2CCc3c(oc4c(C(C)Nc5ccc(Cl)nc5C(=O)O)cc(F)cc4c3=O)C2)CC(C)O1 (stereo not drawn) [Compound C133]
44 | > 5000 | ≤ 500 | Cc1nnn(C)c1S(=O)(=O)N1CCc2c(oc3c([C@@H](C)Nc4ccc(Cl)nc4C(=O)O)cc(F)cc3c2=O)C1 [Compound C134]
45 | > 5000 | ≤ 500 | C[C@@H](Nc1ccc(Cl)nc1C(=O)O)c1cc(F)cc2c(=O)c3c(oc12)CN(S(=O)(=O)C1=CCOCC1)CC3 [Compound C138]
